How the values were obtained:
Human IBAT = molecular target: T1, Human IBAT (Homo sapiens, UniProt Q12908); test: IBAT (h/m) assay, human IBAT-overexpressing cells, 3H-taurocholic acid uptake; assay type: cell-based; conditions: read-out: hIBAT IC50
T1 construct: expressed in transfected cells; cultured under Puromycin selection
T1 sequence (Q12908 1-348): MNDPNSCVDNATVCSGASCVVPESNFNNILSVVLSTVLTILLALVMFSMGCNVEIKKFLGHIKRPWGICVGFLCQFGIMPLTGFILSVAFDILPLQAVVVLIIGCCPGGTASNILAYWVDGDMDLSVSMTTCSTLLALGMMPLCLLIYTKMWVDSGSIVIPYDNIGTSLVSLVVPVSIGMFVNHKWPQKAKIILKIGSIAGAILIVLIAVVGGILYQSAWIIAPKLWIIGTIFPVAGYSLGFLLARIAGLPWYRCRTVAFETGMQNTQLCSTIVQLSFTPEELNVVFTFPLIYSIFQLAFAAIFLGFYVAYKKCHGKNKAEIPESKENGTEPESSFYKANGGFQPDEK
Procedure: IBAT (h/m) Assay Protocol
10,000 cells (Human or Mouse IBAT-overexpressing cells) were seeded in 96-wells plate (Corning CLS3809) in 200 μL MEM-alpha medium (Gibco 12571-063) supplemented with 10% FBS (Gibco 10438026) containing Puromycin (Gibco A1113803) (10 μg/mL) and incubated at 37° C. in 5% CO2 for 48 hours. After incubation, media was decanted from the wells and cells were washed two times with 300 μL of basal MEM-alpha medium (FBS-free). After decanting basal MEM-alpha medium each time, plates were tapped against paper towel to ensure maximum removal of residual media. Test inhibitor dilutions (highest test concentration being 10 μM, 3-fold serial dilution, 10 points) prepared in DMSO (Sigma D2650) were added in incubation mix (maintaining 0.2% final DMSO concentration) containing 0.25 μM 3H-taurocholic acid (ARC ART-1368) and 5 μM of cold taurocholic acid (Sigma T4009). 50 μL of incubation mix containing test inhibitors was then added to the wells (in duplicate) and the plates were incubated for 20 minutes in a CO2 incubator at 37° C. After incubation, the reaction was stopped by keeping the plates on ice water mix for 2-3 minutes and then the incubation mix was aspirated completely from the wells. The wells were washed two times with 250 μL of chilled unlabeled 1 mM taurocholic acid dissolved in HEPES (Gibco 15630080)-buffered (10 mM) HBSS (Gibco 14175079) (pH 7.4). The plates were tapped against a paper towel after every wash to ensure maximum removal of blocking buffer. 100 μL of MicroScint-20 (PerkinElmer 6013621) was added to the wells and kept overnight at room temperature before reading the plates in TopCount NXT™ Microplate Scintillation and Luminescence Counter from PerkinElmer under 3H Test protocol (set at 120 seconds reading time per well).
(§1) Preparation of Test Compound Dilutions
(§2) All test compounds were provided in powder form at room temperature. 10 mM DMSO stocks of the test compounds were prepared, aliquoted and stored at −20° C. From the 10 mM DMSO stock of the compounds, a 3-fold serial dilution in DMSO was prepared to get a total of 10 dilutions of the test compounds. 0.5 μL of this dilution in DMSO was added to 250 μL of FBS-free basal media containing 3H-taurocholic acid and cold taurocholic acid to prepare the incubation mixture.

Human LBAT = molecular target: T2, Human LBAT (Homo sapiens, UniProt Q14973); test: LBAT (h/m) assay, human LBAT-overexpressing cells, 3H-taurocholic acid uptake; assay type: cell-based; conditions: read-out: hLBAT IC50
T2 construct: expressed in transfected cells; cultured under Geneticin selection
T2 sequence (Q14973 1-349): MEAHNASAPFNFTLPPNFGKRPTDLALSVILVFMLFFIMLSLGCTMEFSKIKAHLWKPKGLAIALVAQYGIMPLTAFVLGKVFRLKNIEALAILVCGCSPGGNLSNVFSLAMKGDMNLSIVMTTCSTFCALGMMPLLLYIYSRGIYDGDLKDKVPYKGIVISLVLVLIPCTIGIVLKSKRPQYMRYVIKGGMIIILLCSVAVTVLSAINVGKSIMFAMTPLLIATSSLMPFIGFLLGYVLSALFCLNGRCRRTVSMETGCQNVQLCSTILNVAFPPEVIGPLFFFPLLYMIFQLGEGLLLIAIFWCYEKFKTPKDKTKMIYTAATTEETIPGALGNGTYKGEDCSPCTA
Procedure: LBAT (h/m) Assay Protocol
20,000 cells (Human or Mouse LBAT-overexpressing cells) were seeded in 96-wells plate (Corning CLS3809) in 100 μL MEM-alpha medium (Gibco 12571-063) supplemented with 10% FBS (Gibco 10438026) containing Geneticin (Gibco 10131-027) (1 mg/mL) and incubated at 37° C. in 5% CO2 for 24 hours. After incubation, media was decanted from the wells and cells were washed two times with 300 μL of basal MEM-alpha medium (FBS-free). After decanting basal MEM-alpha medium each time, plates were tapped against paper towel to ensure maximum removal of residual media. For human LBAT, incubation mix was prepared by adding test inhibitor dilutions (3-fold serial dilution in DMSO (Sigma D2650), 10 points) in MEM-alpha (without FBS) containing 0.3 μM 3H-taurocholic acid (ARC ART-1368) and 7.5 μM cold taurocholic acid (Sigma T4009) (maintaining 0.2% final DMSO concentration). For mouse LBAT, incubation mix was prepared by adding test inhibitor dilutions (3-fold serial dilution in DMSO, 10 points) in MEM-alpha (without FBS) containing 0.3 μM 3H-taurocholic acid and 25 μM cold taurocholic acid maintaining 0.2% final DMSO concentration). 50 μL of incubation mix containing test inhibitors was then added to the wells (in duplicate) and the plates were incubated for 20 minutes in a CO2 incubator at 37° C. After incubation, the reaction was stopped by keeping the plates on ice water mix for 2-3 minutes and then the incubation mix was aspirated completely from the wells. The wells were washed two times with 250 μL of chilled unlabeled 1 mM taurocholic acid dissolved in HEPES (Gibco 15630080)-buffered (10 mM) HBSS (Gibco 14175079) (pH 7.4). The plates were tapped against a paper towel after every wash to ensure maximum removal of blocking buffer.
100 μL of MicroScint-20 (PerkinElmer 6013621) was added to the wells and kept overnight at room temperature before reading the plates in TopCount NXT™ Microplate Scintillation and Luminescence Counter from PerkinElmer under 3H Test protocol (set at 120 seconds reading time per well, with normal plate orientation).
as §1, §2

Row | Structure (SMILES) | IC50 (Human IBAT) | IC50 (Human LBAT)
1 | CCCCC1(CC)CN(c2ccc(F)cc2)c2cc(SC)c(OCC3(C(=O)O)CC3)cc2S(=O)(=O)C1 (racemic) [Example 2, 1-(((3-butyl-3-ethyl-5-(4-fluorophenyl)-7-(methylthio)-1,1-dioxido-2,3,4,5-tetrahydro-1,5-benzothiazepin-8-yl)oxy)methyl)cyclopropane-1-carboxylic Acid] | 11 nM | 320 nM
2 | CCCCC1(CC)CN(c2ccc(F)cc2)c2cc(SC)c(OCC(C)(C)C(=O)O)cc2S(=O)(=O)C1 (racemic) [Example 4, 3-((3-butyl-3-ethyl-5-(4-fluorophenyl)-7-(methylthio)-1,1-dioxido-2,3,4,5-tetrahydro-1,5-benzothiazepin-8-yl)oxy)-2,2-dimethylpropanoic Acid] | 37 nM | 173 nM
3 | CCCCC1(C)CN(c2ccc(F)cc2)c2cc(SC)c(OCC(O)C(=O)O)cc2S(=O)(=O)C1 (single isomer, unassigned) [1, diastereomer 2] | 2 nM | 2020 nM
4 | CCCCC1(C)CN(c2ccc(F)cc2)c2cc(SC)c(OCC(O)C(=O)O)cc2S(=O)(=O)C1 (single isomer, unassigned) [1, diastereomer 3] | 61 nM | 921 nM
5 | CCCCC1(C)CN(c2ccc(F)cc2)c2cc(SC)c(OCC(O)C(=O)O)cc2S(=O)(=O)C1 (single isomer, unassigned) [1, diastereomer 4] | 122 nM | 1050 nM
6 | CCCCC1(CC)CN(c2ccc(F)cc2)c2cc(SC)c(OCC3(C(=O)O)CC3)cc2S(=O)(=O)C1 (single isomer, unassigned) [3, enantiomer 2] | 258 nM | 1080 nM
7 | CCCCC1(CC)CN(c2ccc(F)cc2)c2cc(SC)c(OCC(C)(C)C(=O)O)cc2S(=O)(=O)C1 (single isomer, unassigned) [5, enantiomer 2] | 770 nM | 119 nM
8 | CCCCC1(CCCC)CN(c2ccc(F)cc2)c2cc(SC)c(OCC(OC)C(=O)O)cc2S(=O)(=O)C1 (single isomer, unassigned) [10, enantiomer 1] | 40 nM | > 6670 nM
9 | CCCCC1(CCCC)CN(c2ccc(F)cc2)c2cc(SC)c(OCC(OC)C(=O)O)cc2S(=O)(=O)C1 (single isomer, unassigned) [10, enantiomer 2] | 4 nM | > 2220 nM
10 | CCC1(CC)CN(c2ccccc2)c2cc(SC)c(OCC(C)(F)C(=O)O)cc2S(=O)(=O)C1 (stereo not shown) [Example 6, 3-((3,3-diethyl-7-(methylthio)-1,1-dioxido-5-phenyl-2,3,4,5-tetrahydro-1,5-benzothiazepin-8-yl)oxy)-2-fluoro-2-methylpropanoic Acid] | 338 nM | 83 nM
11 | CCCCC1(CC)CN(c2ccc(F)cc2)c2cc(SC)c(OCC(OC)C(=O)O)cc2S(=O)(=O)C1 (stereo not shown) [Example 8, 3-((3-butyl-3-ethyl-5-(4-fluorophenyl)-7-(methylthio)-1,1-dioxido-2,3,4,5-tetrahydro-1,5-benzothiazepin-8-yl)oxy)-2-methoxypropanoic Acid] | 4 nM | 2990 nM
12 | CCCCC1(CCCC)CN(c2ccc(F)cc2)c2cc(SC)c(OCC(OC)C(=O)O)cc2S(=O)(=O)C1 (stereo not shown) [Example 9, 3-((3,3-dibutyl-5-(4-fluorophenyl)-7-(methylthio)-1,1-dioxido-2,3,4,5-tetrahydro-1,5-benzothiazepin-8-yl)oxy)-2-methoxypropanoic Acid] | 10 nM | 5410 nM
13 | CCCCC1(CC)CN(c2ccc(F)cc2)c2cc(SC)c(OCC(OCC)C(=O)O)cc2S(=O)(=O)C1 (stereo not shown) [Example 11, 3-((3-butyl-3-ethyl-5-(4-fluorophenyl)-7-(methylthio)-1,1-dioxido-2,3,4,5-tetrahydro-1,5-benzothiazepin-8-yl)oxy)-2-ethoxypropanoic Acid] | 10 nM | 
14 | CCCCC1(CCCC)CN(c2ccccc2)c2cc(SC)c(OCC(OCC)C(=O)O)cc2S(=O)(=O)C1 (stereo not shown) [Example 12, 3-((3,3-dibutyl-7-(methylthio)-1,1-dioxido-5-phenyl-2,3,4,5-tetrahydro-1,5-benzothiazepin-8-yl)oxy)-2-ethoxypropanoic Acid] | 3 nM | 1250 nM
15 | CCC1(CC)CN(c2ccc(F)cc2)c2cc(SC)c(OCC(C)(C)C(=O)O)cc2S(=O)(=O)C1 [Example 13, 3-((3,3-diethyl-5-(4-fluorophenyl)-7-(methylthio)-1,1-dioxido-2,3,4,5-tetrahydro-1,5-benzothiazepin-8-yl)oxy)-2,2-dimethylpropanoic Acid] | 256 nM | 21 nM
16 | CCCC1(CCC)CN(c2ccccc2)c2cc(SC)c(OCC(O)C(=O)O)cc2S(=O)(=O)C1 (stereo not shown) [Example 14, 2-Hydroxy-3-((7-(methylthio)-1,1-dioxido-5-phenyl-3,3-dipropyl-2,3,4,5-tetrahydro-1,5-benzothiazepin-8-yl)oxy)propanoic Acid] | 30 nM | 3680 nM

— patent US11377429B2, “Benzothia(di)azepine compounds and their use as bile acid modulators” (Albireo AB, priority 2020, dated 2022)
